# In PMC9649518, “Knockout of ABC transporters by CRISPR/Cas9 contributes to reliable and accurate transporter substrate identification for drug discovery” (Frontiers in Pharmacology, 2022):
# Where two headings read alike, the source gives them in different places.
# What was measured:
# [1] = test system: Caco^Pgp−/− cells
# [2] = test system: Caco^BCRP−/− cells
# [3] = test system: Caco^Pgp−/−BCRP−/− cells
# [4] = test system: Caco-2 WT cells
# [5] = test system: Caco^MRP2−/− cells
# [6] = test system: Caco^Pgp−/−MRP2−/− cells
# [7] = test system: Caco^MRP2−/−BCRP−/− cells
# [8] = Bidirectional transport assay across P-gp KO Caco-2 monolayers; details: human, pH 7.4
# [9] = Bidirectional transport assay across MRP2 KO Caco-2 monolayers; details: human, pH 7.4
# [10] = Bidirectional transport assay across BCRP KO Caco-2 monolayers; details: human; for Papp A→B at 1 h, 5 μM / Papp B→A at 1 h, 5 μM: pH 7.4
# [11] = Bidirectional transport assay across P-gp/BCRP double KO Caco-2 monolayers; details: human, pH 7.4
# [12] = Bidirectional transport assay across P-gp/MRP2 double KO Caco-2 monolayers; details: human, pH 7.4
# [13] = Bidirectional transport assay across MRP2/BCRP double KO Caco-2 monolayers; details: human; for Papp A→B at 1 h, 5 μM: pH 7.4, Papp A-to-B, Caco^MRP2−/−BCRP−/−, 5 μM substrate, 37°C, HBSS pH 7.4, n = 3
# [14] = test system: Caco^MRP2−/−BCRP−/− cells; experiment: as above; details: Caco^MRP2−/−BCRP−/−; 5 μM substrate; 1 h, 37°C, HBSS pH 7.4; n = 3
# [15] = Bidirectional transport assay, Caco^BCRP−/− and Caco^MRP2−/− cells taken together; assay type: in vitro ADME; details: human
# Procedure: (§1) The medium was replaced every second day.
# (§2) All these studies were conducted by following similar procedures. […] Then, HBSS was aspirated from both sides.
# (§3) The flow rate was 0.3 mL/min.
# [16] = Bidirectional transport assay across Caco-2 WT monolayers; details: human
# [17] = test system: Caco-2 WT cells; experiment: as above; details: WT Caco-2, 5 μM substrate, n = 3
# [18] = Bidirectional transport assay, P-gp single- and double-KO cells taken together; assay type: in vitro ADME; details: human, pH 7.4, 5 μM substrate
# Procedure: as §1, §2, §3
# [19] = test system: BCRP, MRP2, and MRP2/BCRP knock-out cell lines mediated by ZFN; design: method as in Sampson et al., 2015; details: ref Sampson et al., 2015, cited from earlier work
compound,measurement,setting,value
"5-(and-6)-carboxy-2′,7′-dichlorofluorescein [CDCF]",Papp A-to-B,[1],1.94 ± 0.10 ×10^−6cm/s
same,Papp B-to-A,[1],11.95 ± 1.61 ×10^−6cm/s
same,Papp A-to-B,[2],2.14 ± 0.08 ×10^−6cm/s
same,Papp B-to-A,[2],10.63 ± 0.96 ×10^−6cm/s
same,Papp A-to-B,[3],2.02 ± 0.20 ×10^−6cm/s
same,Papp B-to-A,[3],9.42 ± 0.55 ×10^−6cm/s
same,Papp A-to-B,[4],1.05 ± 0.34 ×10^−6cm/s
same,Papp B-to-A,[4],8.25 ± 0.63 ×10^−6cm/s
same,Papp A-to-B,[5],2.33 ± 0.62 ×10^−6cm/s
same,Papp B-to-A,[5],1.10 ± 0.13 ×10^−6cm/s
same,Papp A-to-B,[6],2.41 ± 0.55 ×10^−6cm/s
same,Papp B-to-A,[6],1.64 ± 0.46 ×10^−6cm/s
same,Papp A-to-B,[7],3.48 ± 0.51 ×10^−6cm/s
same,Papp B-to-A,[7],3.05 ± 0.80 ×10^−6cm/s
CC(C)CN(C[C@@H](O)[C@H](Cc1ccccc1)NC(=O)O[C@H]1CO[C@H]2OCC[C@H]21)S(=O)(=O)c1ccc(N)cc1 [Darunavir],"Papp A→B at 1 h, 5 μM",[8],15.1 ± 0.68 ×10⁻⁶ cm/s
same,"Papp B→A at 1 h, 5 μM",[8],13.6 ± 0.8 ×10⁻⁶ cm/s
same,"Papp A→B at 1 h, 5 μM",[9],1.9 ± 0.14 ×10⁻⁶ cm/s
same,"Papp B→A at 1 h, 5 μM",[9],29.84 ± 0.24 ×10⁻⁶ cm/s
same,"Papp A→B at 1 h, 5 μM",[10],1.75 ± 0.13 ×10⁻⁶ cm/s
same,"Papp B→A at 1 h, 5 μM",[10],34.32 ± 0.19 ×10⁻⁶ cm/s
same,"Papp A→B at 1 h, 5 μM",[11],12.6 ± 1.31 ×10⁻⁶ cm/s
same,"Papp B→A at 1 h, 5 μM",[11],11.5 ± 0.38 ×10⁻⁶ cm/s
same,"Papp A→B at 1 h, 5 μM",[12],10.1 ± 0.44 ×10⁻⁶ cm/s
same,"Papp B→A at 1 h, 5 μM",[12],10.4 ± 0.2 ×10⁻⁶ cm/s
same,"Papp B→A at 1 h, 5 μM",[13]; pH 7.4,27 ± 0.79 ×10⁻⁶ cm/s
same,"Papp A→B at 1 h, 5 μM",[13],4.4 ×10⁻⁶ cm/s
same,Papp A-to-B,[14],4.43 ± 0.63 ×10^−6cm/s
same,"Papp A→B at 1 h, 5 μM","[15]; pH 7.4, read-out: Papp (A-to-B) permeability",1.7 to 1.8 ×10⁻⁶ cm/s
same,"Papp B→A at 1 h, 5 μM","[15]; pH 7.4, read-out: Papp (B-to-A) permeability",29.8 to 34.3 ×10⁻⁶ cm/s
same,"Papp A→B at 1 h, 5 μM","[16]; Caco-2, pH 7.4, Papp A-to-B, WT Caco-2, 5 μM substrate, 1 h, 37°C, HBSS pH 7.4, n = 3",2.6 ×10⁻⁶ cm/s
same,"Papp B→A at 1 h, 5 μM","[16]; Caco-2, pH 7.4, Papp B-to-A, WT Caco-2, 5 μM substrate, 1 h, 37°C, HBSS pH 7.4, n = 3",26.6 ×10⁻⁶ cm/s
same,Papp A-to-B,"[17]; 1 h, 37°C, HBSS pH 7.4",2.65 ± 0.22 ×10^−6cm/s
same,Papp B-to-A,"[17]; 1 h, 37°C, HBSS pH 7.4",26.59 ± 2.06 ×10^−6cm/s
C[C@H]1O[C@@H](O[C@H]2[C@@H](O)C[C@H](O[C@H]3[C@@H](O)C[C@H](O[C@H]4CC[C@@]5(C)[C@H](CC[C@@H]6[C@@H]5C[C@@H](O)[C@]5(C)[C@@H](C7=CC(=O)OC7)CC[C@]65O)C4)O[C@@H]3C)O[C@@H]2C)C[C@H](O)[C@@H]1O [Digoxin],"Papp A→B at 1 h, 5 μM",[8],1.42 ± 0.2 ×10⁻⁶ cm/s
same,"Papp B→A at 1 h, 5 μM",[8],1.67 ± 0.23 ×10⁻⁶ cm/s
same,"efflux ratio at 1 h, 5 μM",[8],1.2 ± 0.21
same,"Papp A→B at 1 h, 5 μM",[9],2.05 ± 0.51 ×10⁻⁶ cm/s
same,"Papp B→A at 1 h, 5 μM",[9],17.6 ± 1.13 ×10⁻⁶ cm/s
same,"efflux ratio at 1 h, 5 μM",[9],9.08 ± 2.87
same,"efflux ratio at 1 h, 5 μM",[18],1
same,"Papp A→B at 1 h, 5 μM",[10],1.66 ± 0.42 ×10⁻⁶ cm/s
same,"Papp B→A at 1 h, 5 μM",[10],14.8 ± 1.85 ×10⁻⁶ cm/s
same,"efflux ratio at 1 h, 5 μM","[10]; pH 7.4, Efflux ratio, Caco^BCRP−/−, 5 μM substrate, n = 3",9.11 ± 1.66
same,"Papp A→B at 1 h, 5 μM",[11],2.42 ± 0.64 ×10⁻⁶ cm/s
same,"Papp B→A at 1 h, 5 μM",[11],2.08 ± 0.12 ×10⁻⁶ cm/s
same,"efflux ratio at 1 h, 5 μM",[11],0.9 ± 0.21
same,"Papp A→B at 1 h, 5 μM",[12],1.95 ± 0.92 ×10⁻⁶ cm/s
same,"Papp B→A at 1 h, 5 μM",[12],1.87 ± 0.4 ×10⁻⁶ cm/s
same,"efflux ratio at 1 h, 5 μM",[12],1.05 ± 0.29
same,Papp A-to-B,"[19]; BCRP, MRP2, and MRP2/BCRP knock-out cell lines mediated by ZFN",~ 0.25 × 10^–6 cm/s
same,Papp A-to-B,[19]; starting value before knock-out ('from'),0.99 × 10^–6 cm/s
same,"Papp B→A at 1 h, 5 μM",[13]; pH 7.4,17.9 ± 0.63 ×10⁻⁶ cm/s
same,"efflux ratio at 1 h, 5 μM",[13]; pH 7.4,9.36 ± 3.17
same,"Papp A→B at 1 h, 5 μM",[13],2.03 ± 0.55 ×10⁻⁶ cm/s
same,"Papp A→B at 1 h, 5 μM","[16]; Caco-2, pH 7.4",1.48 ± 0.21 ×10⁻⁶ cm/s
same,"Papp B→A at 1 h, 5 μM","[16]; Caco-2, pH 7.4",9.33 ± 1.34 ×10⁻⁶ cm/s
same,"efflux ratio at 1 h, 5 μM","[16]; Caco-2, pH 7.4, Efflux ratio, WT Caco-2, 5 μM substrate, Papp(B-to-A)/Papp(A-to-B), n = 3",6.4
same,Efflux ratio,[17]; Papp(B-to-A)/Papp(A-to-B),6.38 ± 1.21
